# Columns and labels:
# [1] = system: NK cells; test: Intracellular ATP concentration in NK cells, luciferase-based assay (CellTiter-Glo 2.0); format: cell-based; conditions: Homo sapiens; isolated NK cells, 30,000 cells per well, pyruvate 0.01 to 10mM, 4 hours; read-out: EC50 for the intracellular ATP production (the pyruvate concentration at which the ATP production is half-maximal)
# Procedure: (§1) Peripheral blood samples from healthy subjects were obtained from the French blood bank (Etablissement Français du sang, Lyon, France).
# (§2) Human PBMCs were separated from peripheral blood by Ficoll® gradient centrifugation (Eurobio Laboratoires & AbCys) at room temperature. The PBMCs were kept at 4°C in complete medium overnight.
# NK cells (CD56^Dim CD3) were isolated using an NK Cell Isolation Kit (Miltenyi Biotec) following the manufacturer's instructions, and then sorted (BD FACS ARIA II, purity > 99%, the following mAbs from eBioscience, BD Biosciences, Biolegend or Cell Signalling Technology were used: anti-CD56 (NCAM16.2), and anti-CD3 (UCHT1)). Freshly sorted NK cells were left to recover from the sorting overnight at 37°C with a non-activating dose of IL-15 (1 ng/ml, Peprotech) in RPMI 1640 medium additionally containing 10% FBS, 2mM HEPES, 2mM glutamine, 1mM pyruvate (sodium pyruvate) and 1% penicillin/streptomycin (HCL Technologies). […]
# The intracellular ATP concentration at each concentration of pyruvate was measured using a luciferase-based assay following the manufacturer's instructions (CellTiter-Glo® 2.0 Cell Viability Assay and NAD/NADH-Glo Assay, Promega Corporation, Madison, WI). Luminescence was measured using a Tristar luminometer (Berthold).
# [2] = system: NK cells; test: Cytotoxicity of NK cells against K562 NanoLuc-expressing target cells (bioluminescence lysis assay); format: cell-based; conditions: Homo sapiens; pyruvate 0.01 to 10 mM for 3 hours, then co-cultured for 4 hours with K562 NanoLuc-expressing target cells; read-out: EC50 for the cytotoxicity of the NK cells (the pyruvate concentration at which the cytotoxicity is half-maximal)
# Procedure: as §1, §2
# NK cells (CD56^Dim CD3) were isolated using an NK Cell Isolation Kit (Miltenyi Biotec) following the manufacturer's instructions, and then sorted (BD FACS ARIA II, purity > 99%, the following mAbs from eBioscience, BD Biosciences, Biolegend or Cell Signalling Technology were used: anti-CD56 (NCAM16.2), and anti-CD3 (UCHT1)). […]
# NK cells were prepared as in Example 1, and were cultured in the absence or in the presence of pyruvate at varying concentrations (0.01 to 10 mM) for 3 hours and then co-cultured for 4 hours with K562 NanoLuc®-expressing target cells. The supernatant was collected and bioluminescence was measured using a Tristar Instrument luminometer (Berthold) after addition of Furimazin (the substrate of NanoLuc). The percentage of cell lysis were calculated as explained in Hayek, S. et al., SLAS Discov. […]
compound,measurement,setting,value
CC(=O)C(=O)O [pyruvate],EC50,[1],500 µM
same,EC50,[2],260 µM

# Source: patent EP4567103A1, “USE OF PYRUVATE FOR POTENTIATING NK CELLS” (LVMH Recherche, priority 2023, dated 2025)
